The supplement of paper PMC11451515

Tested on: P12-Ichikawa
Assay: cell viability relative to DMSO control; higher = less cytotoxic
Details: 48 h
In short: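 Viability is a per-plate percentage relative to DMSO wells, with cell-free wells as background. CellTiter-Glo One luminescence was read after 48 h at 37°C on 1536-well plates (5 μl) of NOMO1 or SEM (500 cells/well) or P12-Ichikawa (1000 cells/well) leukemia cells. The cells had been adapted for at least four passages in each medium and pin-dosed with library compounds in DMSO from 47 μM to 0.79 nM in 11 threefold steps.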

[1] = HPLM + 10% dialyzed FBS, 0.000781 µM
[2] = HPLM + 10% dialyzed FBS, 0.00234 µM
[3] = HPLM + 10% dialyzed FBS, 0.00702 µM
[4] = HPLM + 10% dialyzed FBS, 0.0211 µM
[5] = HPLM + 10% dialyzed FBS, 0.0632 µM
[6] = HPLM + 10% dialyzed FBS, 0.19 µM
[7] = HPLM + 10% dialyzed FBS, 0.569 µM
[8] = HPLM + 10% dialyzed FBS, 1.71 µM
[9] = HPLM + 10% dialyzed FBS, 5.12 µM
[10] = HPLM + 10% dialyzed FBS, 15.4 µM
[11] = HPLM + 10% dialyzed FBS, 46.1 µM
[12] = RPMI 5 mM glucose + 10% FBS, 0.000781 µM
[13] = RPMI 5 mM glucose + 10% FBS, 0.00234 µM
[14] = RPMI 5 mM glucose + 10% FBS, 0.00702 µM
[15] = RPMI 5 mM glucose + 10% FBS, 0.0211 µM
[16] = RPMI 5 mM glucose + 10% FBS, 0.0632 µM
[17] = RPMI 5 mM glucose + 10% FBS, 0.19 µM
[18] = RPMI 5 mM glucose + 10% FBS, 0.569 µM
[19] = RPMI 5 mM glucose + 10% FBS, 1.71 µM
[20] = RPMI 5 mM glucose + 10% FBS, 5.12 µM
[21] = RPMI 5 mM glucose + 10% FBS, 15.4 µM
[22] = RPMI 5 mM glucose + 10% FBS, 46.1 µM
[23] = RPMI 5 mM glucose + 10% dialyzed FBS, 0.000781 µM
[24] = RPMI 5 mM glucose + 10% dialyzed FBS, 0.00234 µM
[25] = RPMI 5 mM glucose + 10% dialyzed FBS, 0.00702 µM
[26] = RPMI 5 mM glucose + 10% dialyzed FBS, 0.0211 µM
[27] = RPMI 5 mM glucose + 10% dialyzed FBS, 0.0632 µM
[28] = RPMI 5 mM glucose + 10% dialyzed FBS, 0.19 µM
[29] = RPMI 5 mM glucose + 10% dialyzed FBS, 0.569 µM
[30] = RPMI 5 mM glucose + 10% dialyzed FBS, 1.71 µM
[31] = RPMI 5 mM glucose + 10% dialyzed FBS, 5.12 µM
[32] = RPMI 5 mM glucose + 10% dialyzed FBS, 15.4 µM
[33] = RPMI 5 mM glucose + 10% dialyzed FBS, 46.1 µM

Row | Structure (SMILES) | cell viability [1] | cell viability [2] | cell viability [3] | cell viability [4] | cell viability [5] | cell viability [6] | cell viability [7] | cell viability [8] | cell viability [9] | cell viability [10] | cell viability [11] | cell viability [12] | cell viability [13] | cell viability [14] | cell viability [15] | cell viability [16] | cell viability [17] | cell viability [18] | cell viability [19] | cell viability [20] | cell viability [21] | cell viability [22] | cell viability [23] | cell viability [24] | cell viability [25] | cell viability [26] | cell viability [27] | cell viability [28] | cell viability [29] | cell viability [30] | cell viability [31] | cell viability [32] | cell viability [33]
1 | COc1cc2cc(c1Cl)N(C)C(=O)C[C@H](OC(=O)C(C)C)[C@]1(C)O[C@@H]1[C@H](C)[C@@H]1C[C@@](O)(NC(=O)O1)[C@H](OC)/C=C/C=C(\C)C2 | 8.03% | 10.4% | 10% | 9.14% | 10.7% | 8.31% | 8.37% | 6.69% | 6.57% | 5.07% | 2.08% | 9.26% | 12.1% | 11.2% | 11.8% | 11% | 9.9% | 8.75% | 8.41% | 6.23% | 5.36% | 2% | 17.5% | 18.1% | 16.5% | 14.6% | 14.3% | 12.9% | 12.2% | 10.2% | 8.98% | 8.07% | 2.84%
2 | COc1cc(C[C@@H](CO)[C@H](CO)Cc2ccc(O)c(OC)c2)ccc1O | 94.8% | 102% | 100% | 105% | 106% | 116% | 112% | 111% | 104% | 99.6% | 115% | 99.4% | 95.1% | 108% | 109% | 109% | 111% | 118% | 119% | 114% | 117% | 110% | 109% | 112% | 113% | 118% | 118% | 122% | 119% | 133% | 134% | 136% | 125%
3 | COc1ccc(-n2c(C)c([N+](=O)[O-])c3ccc(O)cc32)cc1 | – | – | – | – | – | – | – | – | – | – | – | 127% | 118% | 118% | 126% | 118% | 123% | 122% | 121% | 115% | 111% | 105% | 119% | 121% | 120% | 122% | 114% | 118% | 121% | 122% | 106% | 112% | 102%
4 | CCN1\C=C(C(O)=O)/C(=O)C2=C1C(=C(N3CCNC(C)C3)C(=C2)F)F (stereo unspecified) | 96.7% | 107% | 111% | 125% | 101% | 109% | 119% | 115% | 124% | 118% | 110% | 87% | 94% | 110% | 110% | 109% | 110% | 114% | 113% | 107% | 124% | 116% | 104% | 112% | 110% | 113% | 107% | 116% | 117% | 113% | 124% | 120% | 112%
5 | CN(C)CCc1c[nH]c2ccc(Cn3cncn3)cc12 | 96.3% | 95% | 107% | 101% | 107% | 97% | 101% | 22.8% | 6.71% | 7.05% | 6.29% | 92% | 101% | 91.4% | 105% | 105% | 69.3% | 91.1% | 30.9% | 8.08% | 6.52% | 4.97% | 93.7% | 89.5% | 88.3% | 92.4% | 97.3% | 68.3% | 76.5% | 22.3% | 7.34% | 6.02% | 5.62%
6 | CCCCN1CCC(CNC(=O)c2c3n(c4ccccc24)CCCO3)CC1 | 100% | 104% | 109% | 112% | 115% | 109% | 116% | 110% | 107% | 95% | 68.9% | 107% | 105% | 109% | 112% | 118% | 101% | 112% | 114% | 112% | 90.1% | 68% | 92.8% | 107% | 106% | 98.5% | 113% | 105% | 112% | 112% | 109% | 94.7% | 78.5%
7 | Clc1ccc(C(c2ccccc2Cl)C(Cl)Cl)cc1 (stereo unspecified) | 113% | 119% | 116% | 112% | 118% | 119% | 107% | 110% | 103% | 95.4% | 91.6% | 122% | 118% | 116% | 109% | 119% | 107% | 104% | 116% | 106% | 103% | 94.4% | 122% | 120% | 109% | 112% | 116% | 107% | 106% | 106% | 103% | 99.6% | 97.2%
8 | COCC(=O)NC/C=C/c1ccc2ncnc(Nc3ccc(Oc4ccc(C)nc4)c(C)c3)c2c1 | 99.6% | 99.3% | 101% | 107% | 101% | 92.3% | 103% | 98.6% | 95.7% | 93.1% | 64.5% | 91.7% | 112% | 106% | 105% | 105% | 100% | 91.5% | 101% | 81.6% | 77.2% | 43.1% | 102% | 109% | 115% | 113% | 105% | 99% | 97.9% | 101% | 88% | 79.7% | 51.5%
9 | Cc1nnc(C(=O)NC(C)(C)c2nc(C(=O)NCc3ccc(F)cc3)c(O)c(=O)n2C)o1 | 114% | 110% | 104% | 108% | 109% | 103% | 109% | 90.9% | 102% | 102% | 107% | 107% | 110% | 99.3% | 106% | 102% | 104% | 107% | 95.1% | 103% | 103% | 90.7% | 97.8% | 100% | 104% | 103% | 98.7% | 95.5% | 107% | 94.4% | 95.2% | 91.5% | 92.9%
10 | CC(C)(C)NCC(O)c1ccc(O)c(CO)c1 (stereo unspecified) | 117% | 115% | 114% | 105% | 119% | 121% | 110% | 97.8% | 90.5% | 86.5% | 80% | 101% | 116% | 121% | 114% | 111% | 113% | 103% | 103% | 84.4% | 71.4% | 68.3% | 94.9% | 108% | 109% | 106% | 105% | 109% | 102% | 110% | 80.8% | 73.3% | 68.4%
11 | CC(O)(C[S+](=O)([O-])c1ccc(F)cc1)C(=O)Nc1ccc(C#N)c(C(F)(F)F)c1 (stereo unspecified) | 94.8% | 85.9% | 97.2% | 96.8% | 93.7% | 100% | 102% | 101% | 95.6% | 102% | 69.9% | 84.6% | 92.9% | 92.3% | 93.9% | 94.5% | 91.1% | 93.2% | 98.9% | 90.3% | 88.9% | 52.7% | 78.3% | 85.5% | 90.9% | 90.3% | 95.9% | 86.2% | 98.2% | 96.2% | 90.4% | 74% | 49.4%
12 | CCC(=O)NC[C@H](Cc1ccc(OCCc2nc(-c3ccccc3)oc2C)cc1)N/C(C)=C\C(=O)c1ccc(C(F)(F)F)cc1 | 102% | 97.6% | 93.8% | 104% | 109% | 106% | 91.1% | 99.1% | 76% | 35% | 8.82% | 95.8% | 98% | 103% | 112% | 106% | 110% | 77.7% | 105% | 66.7% | 50.4% | 7.18% | 98.3% | 99.4% | 100% | 104% | 99.3% | 99.7% | 83.6% | 86.8% | 62.1% | 53.3% | 11.8%
13 | CN(CC(=O)N(Cc1ccc(C2CCCCC2)cc1)c1ccc(C(=O)O)c(O)c1)[S+](=O)([O-])c1c(F)c(F)c(F)c(F)c1F | 93% | 100% | 94.2% | 102% | 106% | 107% | 107% | 101% | 91.7% | 75.3% | 5.29% | 93% | 100% | 99.5% | 101% | 99.7% | 103% | 100% | 105% | 101% | 92.5% | 51.3% | 87.8% | 90.1% | 91.4% | 93.9% | 96.6% | 87.1% | 94.3% | 96% | 97.9% | 79.6% | 29.6%
14 | CC(C)C[C@H](CC(=O)O)C(=O)N[C@@H](Cc1c[nH]c2ccccc12)C(=O)N[C@@H](C)c1ccccc1 | 95.1% | 102% | 108% | 108% | 112% | 111% | 83.6% | 107% | 73.4% | 42.1% | 22.4% | 89% | 96% | 111% | 101% | 94.2% | 106% | 83.7% | 106% | 72.6% | 53.4% | 32.9% | 103% | 111% | 101% | 119% | 107% | 108% | 103% | 107% | 74.8% | 67.8% | 28.2%
